Counter-ions that a name gives are not always drawn.
Target: 5-HT2A (Homo sapiens, UniProt P28223)
Assay: Radioligand binding assay, serotonin 5-HT2A
Settings: 5-HT2A radioligand binding
Description: Two arylpiperazine derivatives of Formula (I) were tested in the in vitro pharmacological assays to evaluate their activities for dopamine D2 and D4, and serotonin 5-HT1A, 5-HT2A, 5-HT2B, 5-HT6 and 5-HT7 receptors.
Methods employed to evaluate the test compounds A and B in radioligand binding assays were adopted from the scientific literature references as shown in Table 1 to maximize reliability and reproducibility. Reference standards were run as an integral part of each assay to ensure the validity of the results obtained.
Literature References in Table 1: • 1. Gundlach, A. L., et al., Life Sciences 1984, 35:1981-1986. • 2. Hoyer, D., et al, Eur J Pharmacol, 1985, 118:13-23 • 3. Hall, D. a., et al, Brit J Pharmacol, 1997, 121:731-736. • 4. Carpenter, J. W., et al, (2002) Configuring radioligand receptor binding assays for HTS using scintillation proximity assay technology. Methods in Molecular Biology 190 High Throughput Screening: Methods and Protocols • [www.ncgc.nihgov/guidance/manualtoc.html] • 5. Van Tol, et al, nature 1992, 358:149-152. • 6. Bonhaus, D. W., et al, Brit J Pharmacol, 1995, 115:622-628. • 7. Monsma, F. J., et al, Mol Pharmacol, 1993, 43:320-327. • 8. Shen, Y. et al, J. Biol Chem, 1993, 268:18200-18204. • 9. Adham, N., et al, J Pharmacol Exp Ther, 1998, 287:508-514.

Sequence of 5-HT2A (P28223 whole entry): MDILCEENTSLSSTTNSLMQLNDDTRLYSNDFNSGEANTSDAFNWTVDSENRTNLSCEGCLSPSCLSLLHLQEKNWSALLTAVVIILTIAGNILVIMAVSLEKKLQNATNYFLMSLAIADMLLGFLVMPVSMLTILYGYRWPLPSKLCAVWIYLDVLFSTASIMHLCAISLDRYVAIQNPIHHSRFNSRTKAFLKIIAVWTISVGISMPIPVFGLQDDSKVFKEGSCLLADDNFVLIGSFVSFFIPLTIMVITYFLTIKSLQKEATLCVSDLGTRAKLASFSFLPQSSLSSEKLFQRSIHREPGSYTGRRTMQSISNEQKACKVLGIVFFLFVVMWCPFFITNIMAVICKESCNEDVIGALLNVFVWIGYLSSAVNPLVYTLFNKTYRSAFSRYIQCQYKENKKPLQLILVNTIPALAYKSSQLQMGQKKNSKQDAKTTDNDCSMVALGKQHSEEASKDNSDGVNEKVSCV

For `O=C1COc2ccc(OCCCCN3CCN(c4cccc(Cl)c4Cl)CC3)cc2N1` [Compound B, 6-(4-(4-(2,3-dichlorophenyl)piperazin-1-yl)butoxy)-2H-benzo[b][1,4]oxazin-3(4H)-one hydrochloride], the Ki was 2.5 nM.
